In patent publication US20150119363A1, “METHODS OF TREATING BACTERIAL INFECTIONS” (Rampex Pharmaceuticals, Inc., priority 2012, published 2015):

Tests used:
Experiment in all cases: Dose titration biapenem potentiation assay (MPC1)
Details in all cases: biapenem 1 μg/mL
[1] = tested on: EC1007 KPC-3; format: cell-based, Escherichia coli
Protocol: (§1) The potency and spectrum of β-lactamase inhibitors is also determined by assessing their biapenem potentiation activity in a dose titration potentiation assay using strains expressing serine carbapemenases (such as KPC). The potentiation effect is observed as the ability of BLI compounds to inhibit growth in the presence of sub-inhibitory concentration of biapenem. […] Biapenem is present in the test medium at 1 μg/mL. Compounds tested at the highest concentration of 40 μg/mL. […] Table 5 summarizes BLI potency of biapenem potentiation (MPC1). Biapenem MIC for each strain is also shown.

[2] = tested on: KP1004 KPC-2; format: cell-based, Klebsiella pneumoniae
Protocol: as §1

[3] = tested on: KP1008 KPC-2; format: cell-based, Klebsiella pneumoniae
Protocol: as §1

[4] = tested on: ECL1004 NMC-A; format: cell-based, Enterobacter cloacae
Protocol: as §1

| SMILES | BPM MPC1 EC1007 KPC-3 [1] | BPM MPC1 KP1004 KPC-2 [2] | BPM MPC1 KP1008 KPC-2 [3] | BPM MPC1 ECL1004 NMC-A [4] |
| --- | --- | --- | --- | --- |
| CCOC(=O)C[C@@H]1CC[C@H](NC(=O)Cc2cccs2)B(O)O1 [Compound 65, ethyl 2-((3R,6S)-2-hydroxy-3-(2-(thiophen-2-yl)acetamido)-1,2-oxaborinan-6-yl)acetate] | Y (Y = MPC1 of 1 μg/mL to 5 μg/mL.) | Y (Y = MPC1 of 1 μg/mL to 5 μg/mL.) | X (X = MPC1 of less than 1 μg/mL.) | Z (Z = MPC1 of greater than 5 μg/mL.) |
| N[C@@H](CCC(=O)N[C@H]1CC[C@@H](CC(=O)O)OB1O)C(=O)O [Compound 35, (S)-2-amino-5-((3R,6S)-6-(carboxymethyl)-2-hydroxy-1,2-oxaborinan-3-ylamino)-5-oxopentanoic acid] | X (X = MPC1 of less than 1 μg/mL.) | X (X = MPC1 of less than 1 μg/mL.) | X (X = MPC1 of less than 1 μg/mL.) | Y (Y = MPC1 of 1 μg/mL to 5 μg/mL.) |
| O=C(O)C[C@@H]1CC[C@H](NC(=O)C[C@H]2CCCCN2)B(O)O1 [Compound 52, 2-((3R,6S)-2-hydroxy-3-(2-((R)-piperidin-2-yl)acetamido)-1,2-oxaborinan-6-yl)acetic acid] | X (X = MPC1 of less than 1 μg/mL.) | X (X = MPC1 of less than 1 μg/mL.) | X (X = MPC1 of less than 1 μg/mL.) | Y (Y = MPC1 of 1 μg/mL to 5 μg/mL.) |
| CO/N=C(\C(=O)N[C@H]1CC[C@@H](CC(=O)O)OB1O)c1csc(N)n1 [Compound 40, 2-((3R,6S)-3-((Z)-2-(2-aminothiazol-4-yl)-2-(methoxyimino)acetamido)-2-hydroxy-1,2-oxaborinan-6-yl)acetic acid] | Y (Y = MPC1 of 1 μg/mL to 5 μg/mL.) | Y (Y = MPC1 of 1 μg/mL to 5 μg/mL.) | X (X = MPC1 of less than 1 μg/mL.) | Y (Y = MPC1 of 1 μg/mL to 5 μg/mL.) |
| O=C(O)C[C@@H]1CC[C@H](NC(=O)C[C@@H]2CCCCN2)B(O)O1 [Compound 53, 2-((3R,6S)-2-hydroxy-3-(2-((S)-piperidin-2-yl)acetamido)-1,2-oxaborinan-6-yl)acetic acid] | X (X = MPC1 of less than 1 μg/mL.) | X (X = MPC1 of less than 1 μg/mL.) | X (X = MPC1 of less than 1 μg/mL.) | Y (Y = MPC1 of 1 μg/mL to 5 μg/mL.) |
| CSCCC(N)C(=O)N[C@H]1CC[C@@H](CC(=O)O)OB1O (stereo partly drawn) [Compound 41, 2-((3R,6S)-3-(2-amino-4-(methylthio)butanamido)-2-hydroxy-1,2-oxaborinan-6-yl)acetic acid] | X (X = MPC1 of less than 1 μg/mL.) | X (X = MPC1 of less than 1 μg/mL.) | X (X = MPC1 of less than 1 μg/mL.) | Y (Y = MPC1 of 1 μg/mL to 5 μg/mL.) |
| O=C(O)C[C@@H]1CC[C@H](NC(=O)Cc2ccccn2)B(O)O1 [Compound 57, 2-((3R,6S)-2-hydroxy-3-(2-(pyridin-2-yl)acetamido)-1,2-oxaborinan-6-yl)acetic acid] | X (X = MPC1 of less than 1 μg/mL.) | X (X = MPC1 of less than 1 μg/mL.) | X (X = MPC1 of less than 1 μg/mL.) | X (X = MPC1 of less than 1 μg/mL.) |
| O=C(O)C[C@@H]1CC[C@H](NC(=O)[C@H]2Cc3ccccc3CN2)B(O)O1 [Compound 46, 2-((3R,6S)-2-hydroxy-3-((R)-1,2,3,4-tetrahydroisoquinoline-3-carboxamido)-1,2-oxaborinan-6-yl)acetic acid] | X (X = MPC1 of less than 1 μg/mL.) | X (X = MPC1 of less than 1 μg/mL.) | X (X = MPC1 of less than 1 μg/mL.) | X (X = MPC1 of less than 1 μg/mL.) |
| Nc1cc(CC(=O)N[C@H]2CC[C@@H](CC(=O)O)OB2O)ccn1 [Compound 61, 2-((3R,6S)-3-(2-(2-aminopyridin-4-yl)acetamido)-2-hydroxy-1,2-oxaborinan-6-yl)acetic acid] |  | X (X = MPC1 of less than 1 μg/mL.) | X (X = MPC1 of less than 1 μg/mL.) | X (X = MPC1 of less than 1 μg/mL.) |
| O=C(O)C[C@@H]1CC[C@H](NC(=O)c2cn(C3CC3)c3cc(N4CCNCC4)c(F)cc3c2=O)B(O)O1 [Compound 58, 2-((3R,6S)-3-(1-cyclopropyl-6-fluoro-4-oxo-7-(piperazin-1-yl)-1,4-dihydroquinoline-3-carboxamido)-2-hydroxy-1,2-oxaborinan-6-yl)acetic acid] |  | Z (Z = MPC1 of greater than 5 μg/mL.) | Z (Z = MPC1 of greater than 5 μg/mL.) | Z (Z = MPC1 of greater than 5 μg/mL.) |
